Experimental data: ChEMBL document CHEMBL3885861, “Open TG-GATES”

Species: Rattus norvegicus
Assay: Open TG-GATES - Regimen: Single
Format: toxicity, organism-based, Sprague-Dawley
Set-up: regimen Single, gender Male, age 6 weeks
Details: in vivo, po, 0 mg/kg, route gavage, dose level Control; for APTT / Bas / Eos / Fbg / Hb / Ht / Lym / MCH / MCHC / MCV / Mono / Neu / PT / Plat / RBC / Ret / WBC: tissue Blood; for KIDNEY_L / KIDNEY_R / KIDNEY_TOTAL: tissue Kidney; for LIVER: tissue Liver; for A/G / ALP / ALT / AST / BUN / CRE / Ca / Cl / DBIL / GLC / IP / K / LDH / Na / PL / RALB / TBIL / TC / TG / TP / gamma-GTP: tissue Plasma

CCCc1cc(=O)[nH]c(=S)[nH]1 [PROPYLTHIOURACIL]
TERMINAL_BW (3 h): 182.7 g | APTT (3 h): 15.8 s | Bas (3 h): 0% | Eos (3 h): 1% | Fbg (3 h): 217.4 mg/dL | Hb (3 h): 13.2 g/dL | Ht (3 h): 39.8% | Lym (3 h): 78.6% | MCH (3 h): 22.3 pg | MCHC (3 h): 33.3% | MCV (3 h): 67.1 fL | Mono (3 h): 6.2% | Neu (3 h): 14.6% | PT (3 h): 12.6 s | Plat (3 h): 108.3 x10_4/uL | RBC (3 h): 593.2 x10_4/ul | Ret (3 h): 10.7% | WBC (3 h): 86.3 x10_2/uL | KIDNEY_L (3 h): 0.8 g | KIDNEY_R (3 h): 0.8 g | KIDNEY_TOTAL (3 h): 1.7 g | LIVER (3 h): 8.7 g | A/G (3 h): 2 | ALP (3 h): 886.8 IU/L | ALT (3 h): 39.6 IU/L | AST (3 h): 69.8 IU/L | BUN (3 h): 13.2 mg/dL | CRE (3 h): 0.4 mg/dL | Ca (3 h): 11 mg/dL | Cl (3 h): 105 meq/L | DBIL (3 h): 0.024 mg/dL | GLC (3 h): 192.6 mg/dL | IP (3 h): 9.9 mg/dL | K (3 h): 5 meq/L | LDH (3 h): 87.6 IU/L | Na (3 h): 138.6 meq/L | PL (3 h): 140.2 mg/dL | RALB (3 h): 3.6 g/dL | TBIL (3 h): 0.3 mg/dL | TC (3 h): 82.4 mg/dL | TG (3 h): 37.2 mg/dL | TP (3 h): 5.5 g/dL | gamma-GTP (3 h): 0.8 IU/L | TERMINAL_BW (6 h): 178.3 g | APTT (6 h): 16.1 s | Bas (6 h): 0% | Eos (6 h): 0% | Fbg (6 h): 206.8 mg/dL | Hb (6 h): 13 g/dL | Ht (6 h): 39.3% | Lym (6 h): 80% | MCH (6 h): 21.5 pg | MCHC (6 h): 33.1% | MCV (6 h): 64.8 fL | Mono (6 h): 6.4% | Neu (6 h): 13.6% | PT (6 h): 12.6 s | Plat (6 h): 107.1 x10_4/uL | RBC (6 h): 606.2 x10_4/ul | Ret (6 h): 10.4% | WBC (6 h): 111.4 x10_2/uL | KIDNEY_L (6 h): 0.8 g | KIDNEY_R (6 h): 0.8 g | KIDNEY_TOTAL (6 h): 1.6 g | LIVER (6 h): 7.9 g | A/G (6 h): 2.2 | ALP (6 h): 853.4 IU/L | ALT (6 h): 34.2 IU/L | AST (6 h): 66.8 IU/L | BUN (6 h): 11.8 mg/dL | CRE (6 h): 0.5 mg/dL | Ca (6 h): 10.7 mg/dL | Cl (6 h): 105.2 meq/L | DBIL (6 h): 0.046 mg/dL | GLC (6 h): 182 mg/dL | IP (6 h): 10 mg/dL | K (6 h): 5 meq/L | LDH (6 h): 82.2 IU/L | Na (6 h): 137.6 meq/L | PL (6 h): 136.6 mg/dL | RALB (6 h): 3.6 g/dL | TBIL (6 h): 0.3 mg/dL | TC (6 h): 80 mg/dL | TG (6 h): 33.4 mg/dL | TP (6 h): 5.4 g/dL | gamma-GTP (6 h): 1.8 IU/L | TERMINAL_BW (9 h): 175.9 g | APTT (9 h): 16 s | Bas (9 h): 0% | Eos (9 h): 1.2% | Fbg (9 h): 215.4 mg/dL | Hb (9 h): 13.1 g/dL | Ht (9 h): 39.7% | Lym (9 h): 77.8% | MCH (9 h): 22 pg | MCHC (9 h): 33.1% | MCV (9 h): 66.2 fL | Mono (9 h): 6.2% | Neu (9 h): 15.2% | PT (9 h): 12.5 s | Plat (9 h): 107.3 x10_4/uL | RBC (9 h): 599.2 x10_4/ul | Ret (9 h): 10.2% | WBC (9 h): 95.1 x10_2/uL | KIDNEY_L (9 h): 0.8 g | KIDNEY_R (9 h): 0.9 g | KIDNEY_TOTAL (9 h): 1.7 g | LIVER (9 h): 7.6 g | A/G (9 h): 2 | ALP (9 h): 741.2 IU/L | ALT (9 h): 33.6 IU/L | AST (9 h): 61.8 IU/L | BUN (9 h): 13.8 mg/dL | CRE (9 h): 0.5 mg/dL | Ca (9 h): 10.6 mg/dL | Cl (9 h): 107.4 meq/L | DBIL (9 h): 0.006 mg/dL | GLC (9 h): 195.4 mg/dL | IP (9 h): 11.1 mg/dL | K (9 h): 5.2 meq/L | LDH (9 h): 102.4 IU/L | Na (9 h): 139.8 meq/L | PL (9 h): 132.2 mg/dL | RALB (9 h): 3.6 g/dL | TBIL (9 h): 0.4 mg/dL | TC (9 h): 76 mg/dL | TG (9 h): 35.6 mg/dL | TP (9 h): 5.5 g/dL | gamma-GTP (9 h): 2.2 IU/L | TERMINAL_BW (24 h): 192.6 g | APTT (24 h): 16.1 s | Bas (24 h): 0% | Eos (24 h): 1% | Fbg (24 h): 211.2 mg/dL | Hb (24 h): 13.2 g/dL | Ht (24 h): 40% | Lym (24 h): 76.6% | MCH (24 h): 21.6 pg | MCHC (24 h): 33% | MCV (24 h): 65.5 fL | Mono (24 h): 9% | Neu (24 h): 13.6% | PT (24 h): 12.4 s | Plat (24 h): 104.6 x10_4/uL | RBC (24 h): 611.6 x10_4/ul | Ret (24 h): 9.6% | WBC (24 h): 123.5 x10_2/uL | KIDNEY_L (24 h): 0.8 g | KIDNEY_R (24 h): 0.9 g | KIDNEY_TOTAL (24 h): 1.7 g | LIVER (24 h): 9.1 g | A/G (24 h): 2 | ALP (24 h): 974.2 IU/L | ALT (24 h): 46.2 IU/L | AST (24 h): 70.2 IU/L | BUN (24 h): 19.2 mg/dL | CRE (24 h): 0.6 mg/dL | Ca (24 h): 10.9 mg/dL | Cl (24 h): 105.2 meq/L | DBIL (24 h): 0.016 mg/dL | GLC (24 h): 196.6 mg/dL | IP (24 h): 7.9 mg/dL | K (24 h): 5 meq/L | LDH (24 h): 86.6 IU/L | Na (24 h): 138.6 meq/L | PL (24 h): 152.8 mg/dL | RALB (24 h): 3.7 g/dL | TBIL (24 h): 0.3 mg/dL | TC (24 h): 83.2 mg/dL | TG (24 h): 96.2 mg/dL | TP (24 h): 5.6 g/dL | gamma-GTP (24 h): 2.4 IU/L
